The target of test [1] is Protein arginine deiminase 4 (PAD4) (Homo sapiens, UniProt Q9UM07). In words: PAD4 ammonia release assay. The format is biochemical. The settings on record: for IC50: PAD4 ammonia release assay, BAEE substrate, 60 min at RT, read-out: Average IC50 Abs. The essentials: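 PAD4 (20 nM, 2× working solution) was preincubated with compound for 15 min at RT in 100 mM HEPES pH 8.0, 2 mM CaCl2, 50 mM NaCl, 0.1 mM TCEP, BSA at 1.25% DMSO. BAEE (600 μM, 2× mix) reacted 60 min, then OPA/DTT/EDTA detection for 120 min. IC50 came from a 4-parameter fit, normalized to 50 μM reference (100%) and DMSO (0%).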

The subject of test [2] is Citrullinated Histone H3 in dHL-60 cells (differentiated HL-60). In words: dHL-60 Cit-H3 ELISA assay. The format is cell-based, human. The settings on record: read-out: Average IC50 Abs. The procedure: Cell culture: HL-60 cells were grown in IMDM+20% FBS+1% PS. The suspension cells were split into 1:5 with fresh media every 2-3 days to maintain cell density between 1×10^5 to 1×10^6 viable cells/mL. HL-60 cells differentiation: HL-60 cells were diluted to 1×10^5 cells/mL and differentiated into neutrophil-like cells with 100 mM DMF treatment for 72 hours in flask at 37° C., 5% CO2. dHL-60 Cells plating: • 1) HL-60 cells were collected, and the plate was centrifuged at 1000 rpm for 5 min. • 2) The HL-60 cells were diluted to 1.25×10^6 cells/mL and plated into a 96-well plate with 80 μL/well (i.e., 1×10^5/well). The plate was then incubated in the incubator (5% CO2, 37° C.) for 30 min to allow cells to adhere. Compound treatment: • 1) Preparation of compound serial dilution (source plate 500×, final DMSO concentration: 0.2%): briefly, compounds were dissolved in 100% DMSO to a concentration of 20 mM (the stock solution) and a 3-fold serial dilution with 8-point doses was performed. • 2) A 10× compound solution was pipetted up and down; and 10 μL/well of compounds were added into each well and incubated for 30 min. Stimulation with 25 μM A23187: • 1) A solution of A23187 (250 μM) in complete IMDM (IMDM+10% FBS+1% PS) containing 150 U/mL S7 Nuclease was prepared. The obtained solution was added 10 μL/well into each well and incubated for 3 h in the incubator (5% CO2, 37° C.). • 2) The dHL-60 cells treated with 10 μL/well complete IMDM without A23187 worked as negative control. Sample preparation: • 1) EDTA (0.5 M, 2 μL/well) were added to all the wells to stop the reaction. • 2) The plate was centrifuged at 1000 rpm for 5 min to collect supernatant. • 3) The supernatant was then diluted at least 1:2 before adding to the ELISA plate for citrullinated H3 analysis.
The standard was reconstituted with 2 mL of Assay buffer to 500 ng/mL. The reconstituted standard was relatively unstable at 4° C. and should be used within 3 hr after reconstitution.
• 1) 100 μL of the standards or diluted samples were added to the wells on the ELISA plate. • 2) The plate was covered with Cover Sheet and incubated for 2 h at room temperaturert on an orbital shaker.
On the day of the assay, the reagent was thawed at room temperaturert. For one plate, 1.2 mL of HRP Conjugate were diluted into 10.8 mL of assay buffer. A diluted HRP Conjugate was prepared shortly before use.
• 1) The wells were empties and rinsed four times with 1× wash buffer with 300 μL/well (Low speed). The plate was inverted between wash steps to empty the plate. After the last wash, the inverted plate was gently tapped on absorbent paper to remove the residual wash buffer. • 2) 100 μL of the HRP Conjugate working solution were added to each well of the plate. • 3) The plate was covered with cover sheet and incubated for 1 h at RT on an orbital shaker.
• 1) The wells were empties and rinsed four times with 1× wash buffer with 300 μL/well (low speed). The plate was inverted between wash steps to empty the plate. […] 100 uL of HRP STOP solution were added to each well of the plate.
• 1) Wipe the bottom of the plate with a clean tissue to remove fingerprints, dirt, etc. • 2) Read the plate at a wavelength of 450 nm.
The percent (%) inhibition at each concentration of compound was calculated based on and relative to the signal in the HPE and ZPE wells contained within each assay plate. The HPE wells worked as […], and the ZPE wells didn't contain any compound but rather DMSO (final concentration=0.1%) as […]. The concentrations and % inhibition values for tested compounds were plotted and the concentration of compound required for 50% inhibition (IC50) was determined with a Four-parameter logistic dose response equation. The endpoint value (IC50) for the reference peptide/compound was evaluated in each experiment as a quality control measure. If the endpoint value is within 3-fold of the expected value then the experiment is deemed acceptable. […]

[3] abbreviates: Homo sapiens, HL-60, stimulation with 25 μM A23187 for 3 h.
[4] abbreviates: Homo sapiens, HL-60, 3 h, stimulation with 25 μM A23187 for 3 h.

Like-named read-outs stand apart in the source and are kept apart here. Where only a bound is given, the exact number is not on record here.

Chain of Protein arginine deiminase 4 (PAD4) (Q9UM07 whole entry): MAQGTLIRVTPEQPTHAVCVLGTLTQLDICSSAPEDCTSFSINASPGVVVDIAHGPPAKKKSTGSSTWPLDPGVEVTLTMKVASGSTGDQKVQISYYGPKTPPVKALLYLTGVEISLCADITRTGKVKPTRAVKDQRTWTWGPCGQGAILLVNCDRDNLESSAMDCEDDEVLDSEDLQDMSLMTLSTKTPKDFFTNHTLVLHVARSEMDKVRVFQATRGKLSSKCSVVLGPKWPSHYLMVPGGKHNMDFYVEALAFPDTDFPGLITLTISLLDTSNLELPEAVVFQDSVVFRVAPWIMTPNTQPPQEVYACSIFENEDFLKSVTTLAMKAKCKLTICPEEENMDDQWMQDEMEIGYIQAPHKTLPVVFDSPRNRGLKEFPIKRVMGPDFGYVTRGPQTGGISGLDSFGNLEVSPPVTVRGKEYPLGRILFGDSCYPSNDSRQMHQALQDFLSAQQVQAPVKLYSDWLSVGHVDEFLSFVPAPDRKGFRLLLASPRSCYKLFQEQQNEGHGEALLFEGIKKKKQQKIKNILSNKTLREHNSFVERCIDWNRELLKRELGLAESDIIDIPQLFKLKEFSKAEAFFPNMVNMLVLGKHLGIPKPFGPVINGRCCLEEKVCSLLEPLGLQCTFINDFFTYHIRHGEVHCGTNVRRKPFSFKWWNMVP

Turning to `CC(C)C1CN(CCCO)c2cccc3cc(-c4nc5cc(C(=O)N6C[C@H]7CC[C@@H]6[C@@H]7N)cc(F)c5n4C)n1c23` (stereo partly drawn) [Example 103, ((1R,4R,7R)-7-amino-2-azabicyclo[2.2.1]heptan-2-yl)(7-fluoro-2-(1-(3-hydroxypropyl)-3-isopropyl-2,3-dihydro-1H-pyrrolo[1,2,3-de]quinoxalin-5-yl)-1-methyl-1H-benzo[d]imidazol-5-yl)methanone], the values for the half-inhibitory concentration (IC50) in test [1] and in test [2] (setting [3]) were 0.1 to 0.5 µM and no more than 0.1 µM, respectively.

`CC(C)C1CN(C)c2cccc3cc(-c4nc5cc(C(=O)N6C[C@H]7CC[C@@H]6[C@@H]7N)cc(F)c5n4C)n1c23` (stereo partly drawn) [Example 107, ((1R,4R,7R)-7-amino-2-azabicyclo[2.2.1]heptan-2-yl)(7-fluoro-2-(3-isopropyl-1-methyl-2,3-dihydro-1H-pyrrolo[1,2,3-de]quinoxalin-5-yl)-1-methyl-1H-benzo[d]imidazol-5-yl)methanone]: the IC50 in test [1] and in test [2] (setting [4]) was 0.1 to 0.5 µM throughout.

Regarding `Cn1c(-c2cc3ccc(S(C)(=O)=O)c4c3n2C(C2CC2)CN4)nc2cc(C(=O)N3C[C@H]4CC[C@@H]3[C@@H]4N)cc(F)c21` (stereo partly drawn) [Example 123, ((1R,4R,7R)-7-amino-2-azabicyclo[2.2.1]heptan-2-yl)(2-(3-cyclopropyl-9-(methylsulfonyl)-2,3-dihydro-1H-pyrrolo[1,2,3-de]quinoxalin-5-yl)-7-fluoro-1-methyl-1H-benzo[d]imidazol-5-yl)methanone], the IC50 in test [1] and in test [2] (setting [4]) was no more than 0.1 µM throughout.

Turning to `CCC1CN(CCC(N)=O)c2cccc3cc(-c4nc5cc(C(=O)N6C[C@H](N)C[C@@H](F)C6)cc(OC)c5n4C)n1c23` (stereo partly drawn) [Example 94, 3-(5-(5-((3R,5R)-3-amino-5-fluoropiperidine-1-carbonyl)-7-methoxy-1-methyl-1H-benzo[d]imidazol-2-yl)-3-ethyl-2,3-dihydro-1H-pyrrolo[1,2,3-de]quinoxalin-1-yl)propanamide], the IC50 in test [1] was no more than 0.1 µM; in test [2] (setting [4]) it was 0.1 to 0.5 µM.

Regarding `CC[C@H]1CN(CCCO)c2cccc3cc(-c4nc5cc(C(=O)N6C[C@H]7CC[C@@H]6[C@@H]7N)cc(F)c5n4C)n1c23` [Example 71, ((1R,4R,7R)-7-amino-2-azabicyclo[2.2.1]heptan-2-yl)(2-((S)-3-ethyl-1-(3-hydroxypropyl)-2,3-dihydro-1H-pyrrolo[1,2,3-de]quinoxalin-5-yl)-7-fluoro-1-methyl-1H-benzo[d]imidazol-5-yl)methanone], the IC50 in test [1] and in test [2] (setting [4]) was no more than 0.1 µM throughout. Moreover, the “relative potency of separated isomers in the PAD4 biochemical assay” value in test [1] (SFC-separated stereoisomer pairs) is reported as “more potent”.

For `CCn1c(-c2cc3cccc4c3n2C(C)CN4CCCO)nc2cc(C(=O)N3C[C@H]4CC[C@@H]3[C@@H]4N)cc(OC)c21` (stereo partly drawn) [Example 68, ((1R,4R,7R)-7-amino-2-azabicyclo[2.2.1]heptan-2-yl)(1-ethyl-2-(1-(3-hydroxypropyl)-3-methyl-2,3-dihydro-1H-pyrrolo[1,2,3-de]quinoxalin-5-yl)-7-methoxy-1H-benzo[d]imidazol-5-yl)methanone], the half-inhibitory concentration (IC50) in test [1] and in test [2] (setting [4]) was 0.1 to 0.5 µM in each case.

Turning to `CCC1CN(CCCO)c2cccc3cc(-c4nc5cc(C(=O)N6C[C@H]7CC[C@@H]6[C@@H]7N)cc(OC)c5n4C)n1c23` (stereo partly drawn) [Example 85, ((1R,4R,7R)-7-amino-2-azabicyclo[2.2.1]heptan-2-yl)(2-(3-ethyl-1-(3-hydroxypropyl)-2,3-dihydro-1H-pyrrolo[1,2,3-de]quinoxalin-5-yl)-7-methoxy-1-methyl-1H-benzo[d]imidazol-5-yl)methanone], the IC50 in test [1] is 0.1 to 0.5 µM; in test [2] (setting [4]) it was no more than 0.1 µM.

In the case of `CCC1CN(CCCO)c2cccc3cc(-c4nc5cc(C(=O)N6C[C@H](N)C[C@@H](F)C6)cc(OC)c5n4C)n1c23` (single isomer, unassigned) [Example 81], the values for the IC50 in test [1] and in test [2] (stimulation with 25 μM A23187 for 3 h) were 0.5 to 5 µM and greater than 5 µM, respectively.

In the case of `Cn1c(-c2cc3cc(F)cc4c3n2C(C2CC2)CN4)nc2cc(C(=O)N3C[C@H]4CC[C@@H]3[C@@H]4N)cc(F)c21` (stereo partly drawn) [Example 122, ((1R,4R,7R)-7-amino-2-azabicyclo[2.2.1]heptan-2-yl)(2-(3-cyclopropyl-8-fluoro-2,3-dihydro-1H-pyrrolo[1,2,3-de]quinoxalin-5-yl)-7-fluoro-1-methyl-1H-benzo[d]imidazol-5-yl)methanone], the half-maximal inhibitory concentration (IC50) in test [1] and in test [2] (setting [4]) was 0.1 to 0.5 µM each time.

For the compound `COc1cc(C(=O)N2C[C@H](N)C[C@@H](F)C2)cc2nc(-c3cc4cccc5c4n3CCN5CCCO)n(CC3CC3)c12` [Example 59, ((3R,5R)-3-amino-5-fluoropiperidin-1-yl)(1-(cyclopropylmethyl)-2-(1-(3-hydroxypropyl)-2,3-dihydro-1H-pyrrolo[1,2,3-de]quinoxalin-5-yl)-7-methoxy-1H-benzo[d]imidazol-5-yl)methanone], the half-inhibitory concentration (IC50) in test [1] was no more than 0.1 µM; in test [2] (setting [4]), 0.5 to 5 µM.

With `COc1cc(C(=O)N2CCC[C@@H](N)C2)cc2nc(-c3cc4cccc5c4n3CCN5CCO)n(C)c12` [Example 10, (R)-(3-aminopiperidin-1-yl)(2-(1-(2-hydroxyethyl)-2,3-dihydro-1H-pyrrolo[1,2,3-de]quinoxalin-5-yl)-7-methoxy-1-methyl-1H-benzo[d]imidazol-5-yl)methanone], the IC50 in test [1] and in test [2] (setting [3]) was 0.5 to 5 µM each time.

For `COc1cc(C(=O)N2CCC[C@@H](N)C2)cc2nc(-c3cc4cccc5c4n3CCN5CCCO)n(C)c12` [Example 12, (R)-(3-aminopiperidin-1-yl)(2-(1-(3-hydroxypropyl)-2,3-dihydro-1H-pyrrolo[1,2,3-de]quinoxalin-5-yl)-7-methoxy-1-methyl-1H-benzo[d]imidazol-5-yl)methanone], the IC50 in test [1] is 0.1 to 0.5 µM; in test [2] (setting [4]) it was 0.5 to 5 µM.

For the compound `Cn1c(-c2cc3ccc4c(c3n2CC2CC2)NCCO4)nc2cc(C(=O)N3C[C@H]4CC[C@@H]3[C@@H]4N)cc(F)c21` [Example 158, ((1R,4R,7R)-7-amino-2-azabicyclo[2.2.1]heptan-2-yl)(2-(9-(cyclopropylmethyl)-1,2,3,9-tetrahydro-[1,4]oxazino[2,3-g]indol-8-yl)-7-fluoro-1-methyl-1H-benzo[d]imidazol-5-yl)methanone], the IC50 in test [1] and in test [2] (setting [4]) was no more than 0.1 µM each time.

As to `CCC1CN(CCCO)c2cccc3cc(-c4nc5cc(C(=O)N6C[C@H](N)C[C@@H](F)C6)cc(OC)c5n4C)n1c23` (stereo partly drawn) [Example 80, ((3R,5R)-3-amino-5-fluoropiperidin-1-yl)(2-(3-ethyl-1-(3-hydroxypropyl)-2,3-dihydro-1H-pyrrolo[1,2,3-de]quinoxalin-5-yl)-7-methoxy-1-methyl-1H-benzo[d]imidazol-5-yl)methanone], the IC50 in test [1] and in test [2] (setting [4]) was 0.1 to 0.5 µM throughout.

The record behind these values is patent US20250136607A1 (REGOR PHARMACEUTICALS, INC., priority 2021, published 2025).
